Species: Rattus norvegicus
Assay: Open TG-GATES - Regimen: Single
Type: toxicity, organism-based, Sprague-Dawley
Design: regimen Single, gender Male, age 6 weeks
Details: in vivo, po, 0 mg/kg, route gavage, dose level Control; for APTT / Bas / Eos / Fbg / Hb / Ht / Lym / MCH / MCHC / MCV / Mono / Neu / PT / Plat / RBC / Ret / WBC: tissue Blood; for KIDNEY_L / KIDNEY_R / KIDNEY_TOTAL: tissue Kidney; for LIVER: tissue Liver; for A/G / ALP / ALT / AST / BUN / CRE / Ca / Cl / DBIL / GLC / IP / K / LDH / Na / PL / RALB / TBIL / TC / TG / TP / gamma-GTP: tissue Plasma

Molecule `CC(CN1c2ccccc2Sc2ccccc21)N(C)C` (configuration not stated) [PROMETHAZINE] has a TERMINAL_BW (3 h) of 213.5 g, an APTT (3 h) of 22.4 s and a Bas (3 h) of 0%. It also gave an Eos (3 h) of 0.8%, a Fbg (3 h) of 333.6 mg/dL and a Hb (3 h) of 13 g/dL. It also gave a Ht (3 h) of 39.9%, a Lym (3 h) of 81.4% and an MCH (3 h) of 20.6 pg. For the same molecule, the MCHC (3 h) was 32.6%, the MCV (3 h) was 63.4 fL and the Mono (3 h) was 2.4%. It also gave a Neu (3 h) of 15.2%, a PT (3 h) of 16.4 s and a Plat (3 h) of 117.1 x10_4/uL. The RBC (3 h) was 629.4 x10_4/ul, the Ret (3 h) was 8.5% and the WBC (3 h) was 94.5 x10_2/uL. The KIDNEY_L (3 h) was 0.9 g, the KIDNEY_R (3 h) was 1 g and the KIDNEY_TOTAL (3 h) was 1.9 g. It also gave an LIVER (3 h) of 9.9 g, an A/G (3 h) of 1.2 and an ALP (3 h) of 1819.4 IU/L. The ALT (3 h) was 42.8 IU/L, the AST (3 h) was 76 IU/L and the BUN (3 h) was 12.8 mg/dL. For the same molecule, the CRE (3 h) was 0.2 mg/dL, the Ca (3 h) was 10.9 mg/dL and the Cl (3 h) was 105.8 meq/L. The DBIL (3 h) was 0 mg/dL, the GLC (3 h) was 190.4 mg/dL and the IP (3 h) was 8.1 mg/dL. For the same molecule, the K (3 h) was 4.4 meq/L, the LDH (3 h) was 234.4 IU/L and the Na (3 h) was 142.2 meq/L. For the same molecule, the PL (3 h) was 134.2 mg/dL, the RALB (3 h) was 3 g/dL and the TBIL (3 h) was 0.016 mg/dL. It also gave a TC (3 h) of 75 mg/dL, a TG (3 h) of 64.2 mg/dL and a TP (3 h) of 5.5 g/dL. For the same molecule, the gamma-GTP (3 h) was 1.2 IU/L, the TERMINAL_BW (6 h) was 210.9 g and the APTT (6 h) was 22.7 s. It also gave a Bas (6 h) of 0%, an Eos (6 h) of 1% and a Fbg (6 h) of 310.8 mg/dL. It also gave a Hb (6 h) of 13.3 g/dL, a Ht (6 h) of 39.9% and a Lym (6 h) of 82.6%. For the same molecule, the MCH (6 h) was 20.9 pg, the MCHC (6 h) was 33.4% and the MCV (6 h) was 62.5 fL. The Mono (6 h) was 2.4%, the Neu (6 h) was 13.6% and the PT (6 h) was 16.7 s. It also gave a Plat (6 h) of 111.7 x10_4/uL, an RBC (6 h) of 639.6 x10_4/ul and a Ret (6 h) of 7.3%. The WBC (6 h) was 81.5 x10_2/uL, the KIDNEY_L (6 h) was 1 g and the KIDNEY_R (6 h) was 1 g. For the same molecule, the KIDNEY_TOTAL (6 h) was 2 g, the LIVER (6 h) was 8.7 g and the A/G (6 h) was 1.3. It also gave an ALP (6 h) of 1393.4 IU/L, an ALT (6 h) of 41.4 IU/L and an AST (6 h) of 76.2 IU/L. It also gave a BUN (6 h) of 11.2 mg/dL, a CRE (6 h) of 0.2 mg/dL and a Ca (6 h) of 10.9 mg/dL. It also gave a Cl (6 h) of 104.8 meq/L, a DBIL (6 h) of 0 mg/dL and a GLC (6 h) of 186.2 mg/dL. For the same molecule, the IP (6 h) was 9.4 mg/dL, the K (6 h) was 4.3 meq/L and the LDH (6 h) was 208.2 IU/L. It also gave a Na (6 h) of 141.2 meq/L, a PL (6 h) of 133.8 mg/dL and an RALB (6 h) of 3 g/dL. It also gave a TBIL (6 h) of 0.018 mg/dL, a TC (6 h) of 83.2 mg/dL and a TG (6 h) of 53 mg/dL. For the same molecule, the TP (6 h) was 5.4 g/dL, the gamma-GTP (6 h) was 1.8 IU/L and the TERMINAL_BW (9 h) was 207.6 g. The APTT (9 h) was 22.2 s, the Bas (9 h) was 0% and the Eos (9 h) was 0.8%. For the same molecule, the Fbg (9 h) was 318.8 mg/dL, the Hb (9 h) was 13.1 g/dL and the Ht (9 h) was 40.1%. The Lym (9 h) was 80%, the MCH (9 h) was 20.8 pg and the MCHC (9 h) was 32.6%. It also gave an MCV (9 h) of 64 fL, a Mono (9 h) of 3% and a Neu (9 h) of 15.6%. For the same molecule, the PT (9 h) was 16.7 s, the Plat (9 h) was 123.9 x10_4/uL and the RBC (9 h) was 627.6 x10_4/ul. The Ret (9 h) was 8.1%, the WBC (9 h) was 107.3 x10_2/uL and the KIDNEY_L (9 h) was 1 g. For the same molecule, the KIDNEY_R (9 h) was 1 g, the KIDNEY_TOTAL (9 h) was 1.9 g and the LIVER (9 h) was 8.7 g. For the same molecule, the A/G (9 h) was 1.2, the ALP (9 h) was 1357.2 IU/L and the ALT (9 h) was 38.8 IU/L. For the same molecule, the AST (9 h) was 68 IU/L, the BUN (9 h) was 12.4 mg/dL and the CRE (9 h) was 0.2 mg/dL. It also gave a Ca (9 h) of 10.6 mg/dL, a Cl (9 h) of 104.6 meq/L and a DBIL (9 h) of 0.004 mg/dL. It also gave a GLC (9 h) of 191.2 mg/dL, an IP (9 h) of 10 mg/dL and a K (9 h) of 4.5 meq/L. It also gave an LDH (9 h) of 237.8 IU/L, a Na (9 h) of 140.4 meq/L and a PL (9 h) of 125.8 mg/dL. The RALB (9 h) was 3 g/dL, the TBIL (9 h) was 0.016 mg/dL and the TC (9 h) was 73.2 mg/dL. It also gave a TG (9 h) of 55 mg/dL, a TP (9 h) of 5.4 g/dL and a gamma-GTP (9 h) of 1.2 IU/L. The TERMINAL_BW (24 h) was 222 g, the APTT (24 h) was 22.1 s and the Bas (24 h) was 0%. For the same molecule, the Eos (24 h) was 0.8%, the Fbg (24 h) was 326.8 mg/dL and the Hb (24 h) was 13.5 g/dL. The Ht (24 h) was 40.2%, the Lym (24 h) was 81.6% and the MCH (24 h) was 20.8 pg. It also gave an MCHC (24 h) of 33.5%, an MCV (24 h) of 62.2 fL and a Mono (24 h) of 2%. The Neu (24 h) was 14.8%, the PT (24 h) was 17 s and the Plat (24 h) was 131.7 x10_4/uL. For the same molecule, the RBC (24 h) was 647.6 x10_4/ul, the Ret (24 h) was 7.2% and the WBC (24 h) was 130.1 x10_2/uL. For the same molecule, the KIDNEY_L (24 h) was 1 g, the KIDNEY_R (24 h) was 1 g and the KIDNEY_TOTAL (24 h) was 2 g. For the same molecule, the LIVER (24 h) was 10.5 g, the A/G (24 h) was 1.3 and the ALP (24 h) was 1690.8 IU/L. It also gave an ALT (24 h) of 44.2 IU/L, an AST (24 h) of 73.2 IU/L and a BUN (24 h) of 15.8 mg/dL. For the same molecule, the CRE (24 h) was 0.2 mg/dL, the Ca (24 h) was 11 mg/dL and the Cl (24 h) was 106.6 meq/L. For the same molecule, the DBIL (24 h) was 0 mg/dL, the GLC (24 h) was 192.6 mg/dL and the IP (24 h) was 7.2 mg/dL. It also gave a K (24 h) of 4.4 meq/L, an LDH (24 h) of 180.6 IU/L and a Na (24 h) of 142.4 meq/L. It also gave a PL (24 h) of 141.4 mg/dL, an RALB (24 h) of 3.1 g/dL and a TBIL (24 h) of 0.004 mg/dL. It also gave a TC (24 h) of 74.4 mg/dL, a TG (24 h) of 95.8 mg/dL and a TP (24 h) of 5.5 g/dL. It also gave a gamma-GTP (24 h) of 1.4 IU/L.

Source: ChEMBL document CHEMBL3885861, “Open TG-GATES”
